Experiment: Oral absorbability of cefditoren pivoxil suspensions in dogs
Type: in vivo
Settings: suspension of crystals as compared to an amorphous suspension
Description: On the other hand, since amorphous cefditoren pivoxil is apt to change into a crystalline state in a solution, an antibiotic pharmaceutical composition comprising amorphous cefditoren pivoxil still needs to be improved.

- Oral absorbability in dogs (in words): extremely low oral absorbability
SMILES: CO/N=C(\C(=O)N[C@@H]1C(=O)N2C(C(=O)OCOC(=O)C(C)(C)C)=C(/C=C\c3scnc3C)CS[C@H]12)c1csc(N)n1 [cefditoren pivoxil, (−)-(6R,7R)-7-[(Z)-2-(2-aminothiazol-4-yl)-2-methoxyiminoacetamido]-3-[(Z)-2-(4-methylthiazol-5-yl)ethenyl]-8-oxo-5-thia-1-azabicyclo[4.2.0]oct-2-ene-2-carboxylic acid 2,2-dimethylpropionyloxymethyl ester]
